# Counter-ions that a name gives are not always drawn.
# Experiments:
# [1] = system: BV2 (mouse microglia) cell line; test: pHrodo-myelin phagocytosis/cell viability high content imaging assay: phagocytosis signal; assay type: cell-based
# Method in brief: (§1)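 High content imaging, roughly 22 hours post pHrodo-myelin addition, recorded phagocytosis signal alongside viability in microglial lines BV2 (mouse) and HMC3 (human). Apoptosis tracked through intensity rise (early) and fall (later) among three extracted measurements.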
# [2] = system: HMC3 (human microglia) cell line; test: as above; assay type: cell-based
# Method in brief: as §1
# [3] = Kinetic solubility in aqueous buffer pH 7.4 by total chemiluminescent nitrogen determination (Analiza); conditions: aqueous buffer, pH 7.4, aqueous buffer, kinetic from dmso stock
# [4] = system: BV2 (mouse microglia) cell line; test: pHrodo-myelin phagocytosis/cell viability high content imaging assay: viability (cell count, nuclear area, nuclear intensity)
# Method in brief: (§2)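 Immortalized microglia are treated with compound (10 μM, single concentration) for 48 h, the final 20 h alongside pHrodo-myelin. Data are the mean of duplicates, reported as % of untreated control.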
# [5] = system: HMC3 (human microglia) cell line; test: as above
# Method in brief: as §2
Compound,solubility kinetic [3] [µM],"Inhibition of human microglial phagocytosis at 10 μM (<70% control) ([2]; 10 μM, HMC3)","Inhibition of human microglial phagocytosis at 10 μM (<70% control) ([2]; HMC3, 10 μM)",further results
O=C(NC1CCNCC1)c1n[nH]cc1NC(=O)c1c(Cl)cccc1Cl [AT-7519],146,,,"Inhibition of mouse microglial phagocytosis at 10 μM (<70% control) ([1]; BV2, 10 μM): Y (The compound was found to inhibit phagocytosis (response threshold: <70% control) when murine immortalized microglial cells were dosed at 10 μM (Y: yes)); Stimulation of human microglial phagocytosis at 10 μM (>150% control) ([2]; HMC3, 10 μM): Y (The compound was found to stimulate phagocytosis (response threshold: >150% control) when human immortalized microglial cells were dosed at 10 μM (Y: yes)); Mouse microglial cytotoxicity at 10 μM (<70% control) ([4]; BV2, 10 μM): Y (The compound was found to be cytotoxic (cell count threshold: <70% control) when murine immortalized microglial cells were dosed at 10 μM (Y: yes))"
CCN(CC)c1ccc(/C=N/NC(=O)c2ccc(O)cc2)cc1 [DY131],4.5,,Y (The compound was found to inhibit phagocytosis (response threshold: <70% control) when human immortalized microglial cells were dosed at 10 μM (Y: yes)),"Mouse microglial cytotoxicity at 10 μM (<70% control) ([4]; BV2, 10 μM): Y (The compound was found to be cytotoxic (cell count threshold: <70% control) when murine immortalized microglial cells were dosed at 10 μM (Y: yes))"
c1ccc(-c2nn3c(c2-c2ccnc4cc(OCCN5CCOCC5)ccc24)CCC3)nc1 [LY2109761],114,,Y (The compound was found to inhibit phagocytosis (response threshold: <70% control) when human immortalized microglial cells were dosed at 10 μM (Y: yes)),
CO[C@H]1C[C@@H]2CC[C@@H](C)[C@@](O)(O2)C(=O)C(=O)N2CCCC[C@H]2C(=O)O[C@H]([C@H](C)C[C@@H]2CC[C@@H](O)[C@H](OC)C2)CC(=O)[C@H](C)/C=C(\C)[C@@H](O)[C@@H](OC)C(=O)[C@H](C)C[C@H](C)/C=C/C=C/C=C/1C [Sirolimus],19.8,Y (The compound was found to inhibit phagocytosis (response threshold: <70% control) when human immortalized microglial cells were dosed at 10 μM (Y: yes)),,"Stimulation of mouse microglial phagocytosis at 10 μM (>150% control) ([1]; 10 μM, BV2): Y (The compound was found to stimulate phagocytosis (response threshold: >150% control) when murine immortalized microglial cells were dosed at 10 μM (Y: yes)); Mouse microglial cytotoxicity at 10 μM (<70% control) ([4]; 10 μM, BV2): Y (The compound was found to be cytotoxic (cell count threshold: <70% control) when murine immortalized microglial cells were dosed at 10 μM (Y: yes))"
CCCC[C@@H](C=O)NC(=O)[C@H](CC(C)C)NC(=O)OCc1ccccc1 [Calpeptin],170,,Y (The compound was found to inhibit phagocytosis (response threshold: <70% control) when human immortalized microglial cells were dosed at 10 μM (Y: yes)),"Stimulation of mouse microglial phagocytosis at 10 μM (>150% control) ([1]; BV2, 10 μM): Y (The compound was found to stimulate phagocytosis (response threshold: >150% control) when murine immortalized microglial cells were dosed at 10 μM (Y: yes))"
CC(C)(C)c1cnc(CSc2cnc(NC(=O)C3CCNCC3)s2)o1 [SNS-032],138,,,"Stimulation of human microglial phagocytosis at 10 μM (>150% control) ([2]; HMC3, 10 μM): Y (The compound was found to stimulate phagocytosis (response threshold: >150% control) when human immortalized microglial cells were dosed at 10 μM (Y: yes)); Mouse microglial cytotoxicity at 10 μM (<70% control) ([4]; BV2, 10 μM): Y (The compound was found to be cytotoxic (cell count threshold: <70% control) when murine immortalized microglial cells were dosed at 10 μM (Y: yes)); Human microglial cytotoxicity at 10 μM (<70% control) ([5]; HMC3, 10 μM): Y (The compound was found to be cytotoxic (cell count threshold: <70% control) when human immortalized microglial cells were dosed at 10 μM (Y: yes))"
O=C(CCl)c1ccccc1Nc1cccc(C(F)(F)F)c1 [TED-347],40.8,,Y (The compound was found to inhibit phagocytosis (response threshold: <70% control) when human immortalized microglial cells were dosed at 10 μM (Y: yes)),"Stimulation of mouse microglial phagocytosis at 10 μM (>150% control) ([1]; BV2, 10 μM): Y (The compound was found to stimulate phagocytosis (response threshold: >150% control) when murine immortalized microglial cells were dosed at 10 μM (Y: yes))"
C[C@H](NC(=O)c1sccc1OCc1ccc(Cl)cc1)c1ccccc1 [AS1949490],< 2.1,Y (The compound was found to inhibit phagocytosis (response threshold: <70% control) when human immortalized microglial cells were dosed at 10 μM (Y: yes)),,

# Now from value to compound, other results behind:
solubility kinetic [3] [µM],Compound,"Inhibition of human microglial phagocytosis at 10 μM (<70% control) ([2]; 10 μM, HMC3)","Inhibition of human microglial phagocytosis at 10 μM (<70% control) ([2]; HMC3, 10 μM)",further results
40,O=S(=O)(c1ccccc1)N(CC(F)(F)F)c1ccc(C(O)(C(F)(F)F)C(F)(F)F)cc1 [T 0901317],Y (The compound was found to inhibit phagocytosis (response threshold: <70% control) when human immortalized microglial cells were dosed at 10 μM (Y: yes)),,"Stimulation of mouse microglial phagocytosis at 10 μM (>150% control) ([1]; 10 μM, BV2): Y (The compound was found to stimulate phagocytosis (response threshold: >150% control) when murine immortalized microglial cells were dosed at 10 μM (Y: yes))"
< 1.1,O=C(/C=C/c1ccco1)Nc1ncc(Cc2ccccc2)s1 [Compound 1],Y (The compound was found to inhibit phagocytosis (response threshold: <70% control) when human immortalized microglial cells were dosed at 10 μM (Y: yes)),,"Inhibition of mouse microglial phagocytosis at 10 μM (<70% control) ([1]; 10 μM, BV2): Y (The compound was found to inhibit phagocytosis (response threshold: <70% control) when murine immortalized microglial cells were dosed at 10 μM (Y: yes)); Mouse microglial cytotoxicity at 10 μM (<70% control) ([4]; 10 μM, BV2): Y (The compound was found to be cytotoxic (cell count threshold: <70% control) when murine immortalized microglial cells were dosed at 10 μM (Y: yes))"
796,COc1ccc(CCCN2CCC(COC(c3ccccc3)c3ccccc3)CC2)cc1 [UK-78282 HCl],Y (The compound was found to inhibit phagocytosis (response threshold: <70% control) when human immortalized microglial cells were dosed at 10 μM (Y: yes)),,"Stimulation of mouse microglial phagocytosis at 10 μM (>150% control) ([1]; 10 μM, BV2): Y (The compound was found to stimulate phagocytosis (response threshold: >150% control) when murine immortalized microglial cells were dosed at 10 μM (Y: yes))"
172,C[C@H]1Oc2cc(cnc2N)-c2c(nn(C)c2C#N)CN(C)C(=O)c2ccc(F)cc21 [Lorlatinib],,Y (The compound was found to inhibit phagocytosis (response threshold: <70% control) when human immortalized microglial cells were dosed at 10 μM (Y: yes)),"Stimulation of mouse microglial phagocytosis at 10 μM (>150% control) ([1]; BV2, 10 μM): Y (The compound was found to stimulate phagocytosis (response threshold: >150% control) when murine immortalized microglial cells were dosed at 10 μM (Y: yes))"
42.1,CC(Nc1nc(N2CCCC2)nc2ccccc12)c1ccccc1 (stereo not drawn) [Importazole],Y (The compound was found to inhibit phagocytosis (response threshold: <70% control) when human immortalized microglial cells were dosed at 10 μM (Y: yes)),,"Mouse microglial cytotoxicity at 10 μM (<70% control) ([4]; 10 μM, BV2): Y (The compound was found to be cytotoxic (cell count threshold: <70% control) when murine immortalized microglial cells were dosed at 10 μM (Y: yes)); Human microglial cytotoxicity at 10 μM (<70% control) ([5]; 10 μM, HMC3): Y (The compound was found to be cytotoxic (cell count threshold: <70% control) when human immortalized microglial cells were dosed at 10 μM (Y: yes))"
6.5,CCn1cc(C(=O)O)c(=O)c2c(N)c(F)c(NC3CCCCC3)cc21 [AS1842856],Y (The compound was found to inhibit phagocytosis (response threshold: <70% control) when human immortalized microglial cells were dosed at 10 μM (Y: yes)),,"Human microglial cytotoxicity at 10 μM (<70% control) ([5]; 10 μM, HMC3): Y (The compound was found to be cytotoxic (cell count threshold: <70% control) when human immortalized microglial cells were dosed at 10 μM (Y: yes))"
155,O=C(O)CCCc1nc(-c2ccc(Cl)c(Cl)c2)c(-c2ccccc2)o1 [SWE101],,Y (The compound was found to inhibit phagocytosis (response threshold: <70% control) when human immortalized microglial cells were dosed at 10 μM (Y: yes)),"Stimulation of mouse microglial phagocytosis at 10 μM (>150% control) ([1]; BV2, 10 μM): Y (The compound was found to stimulate phagocytosis (response threshold: >150% control) when murine immortalized microglial cells were dosed at 10 μM (Y: yes))"
< 1.1,OC(c1cc(C23CC4CC(CC(C4)C2)C3)nc2c(Cl)cc(Cl)cc12)C1CCCCN1 (stereo not drawn) [NSC305787],,Y (The compound was found to inhibit phagocytosis (response threshold: <70% control) when human immortalized microglial cells were dosed at 10 μM (Y: yes)),"Mouse microglial cytotoxicity at 10 μM (<70% control) ([4]; BV2, 10 μM): Y (The compound was found to be cytotoxic (cell count threshold: <70% control) when murine immortalized microglial cells were dosed at 10 μM (Y: yes))"
160,C[C@@H](Oc1cc(-c2cnn(C3CCNCC3)c2)cnc1N)c1c(Cl)ccc(F)c1Cl [Crizotinib],,Y (The compound was found to inhibit phagocytosis (response threshold: <70% control) when human immortalized microglial cells were dosed at 10 μM (Y: yes)),"Inhibition of mouse microglial phagocytosis at 10 μM (<70% control) ([1]; BV2, 10 μM): Y (The compound was found to inhibit phagocytosis (response threshold: <70% control) when murine immortalized microglial cells were dosed at 10 μM (Y: yes))"

# Reference: article PMC9019904, “AD Informer Set: Chemical tools to facilitate Alzheimer's disease drug discovery” (Alzheimer's & Dementia : Translational Research & Clinical …, 2022)
